From patent US9649305B2, “PFKFB3 inhibitor and methods of use as an anti-cancer therapeutic” (ADVANCED CANCER THERAPEUTICS, LLC, priority 2012, dated 2017)
Where two headings read alike, the source gives them in different places.

What was measured:
[1] = Repeat-dose toxicology study in SD rats; format: in vivo
Procedure: Toxicology studies were performed in SD rats comparing PFK-158 and PFK-015 using a repeat dosing schedule. The studies were performed at dose levels ranging from 5 to 30 mg/kg and animals were monitored for weight loss, behavior, clinical signs, and clinical chemistries. At the end of the study, gross pathology and histopathology were performed.

LLC tumor = test: Lewis lung carcinoma (LLC) model; format: in vivo; settings: IP 60 mg/kg on days 1, 3, 5, 7, 9, 11, 13
Source text: Treatment began following randomization.

[2] = test system: lung cancer model, pancreatic cancer model, colon cancer model; test: Tumor growth inhibition in mouse cancer models
Procedure: Studies determining efficacy of PFK-158 at inhibiting tumor growth in mouse cancer models were performed. These studies were carried out with PFK-158 alone and in combination with compounds currently used in the treatment of cancer patients. Studies were performed in a lung cancer model, a pancreatic cancer model, and in a colon cancer model.
Efficacy of PFK-158 was studied in vivo in tumor models. Several tumor models were used in these studies (the Lewis lung carcinoma, or LLC model, the CT-26 colon carcinoma tumor model, or the BXPC3 pancreatic cancer model). The experimental protocol for the LLC study is described below. Subsequent to subcutaneous inoculation of tumor cells, tumors started to develop and once tumors reached the desired volume of 100-125 mm^3 on average, treatment was initiated. Tumor volume was monitored in both groups and the average for both the control and treatment groups was measured three times a week, as well as body weights.
Briefly, normal female C57BL/6 mice at 7-8 weeks of age were used for the study. Mice were housed in microisolator housing, with food and water provided as libitum, and quarantined for 4 days prior to the initiation of the study. LLC cells were maintained in a monolayer culture in DMEM medium supplemented with 10% heat inactivated fetal calf serum, 100 U/ml penicillin and 100 μg/ml streptomycin, and L-glutamine (2 mM) at 37° C. in an atmosphere of 5% CO2 in air. The tumor cells were routinely sub-cultured twice a week. The cells growing in an exponential phase were harvested and counted for tumor inoculation. Each mouse was inoculated subcutaneously at the right flank with the LLC tumor cells (3×10^5) in 0.1 ml of PBS for tumor development. When athymic nude mice were used, as for the BxPC3 model, then the strain of mice is slightly different. Furthermore, the use of Matrigel supports tumor development, meaning that cells are suspended in 100 μl of a mixture of medium/Matrigel (1:1) and are then subcutaneously implanted in the right flank region. Animals were monitored for tumor growth daily after cell implantation. When tumor volumes reached approximately 100-125 mm^3, mice were randomized into groups of 8 mice each using only mice having tumor volumes closest to the mean value. Tumor volumes were measured using the formula V=L×W×H×π/6, where L and W represent the longer and shorter diameters of the tumor and H represents the height of the tumor. Treatment began following randomization. PFK-158 was administered IP at a dose of 60 mg/kg on days 1, 3, 5, 7, 9, 11, and 13.
Similar protocols were used for the other studies using different models; differences included the use of Balbc/nude mice; administering larger number of cancer cells; and use of Matrigel.

[3] = IV pharmacokinetics in rats, 30 mg/kg; format: in vivo; settings: Table 7, Rat (30 mg/kg), Sprague Dawley rats
Procedure: The pharmacokinetic (PK) parameters for PFK-158 were determined in mice following IV (intravenous) administration in mice and rats. A typical study design includes six animals (male or female) 7 to 8 weeks old.
Mouse pharmacokinetic properties using a dose of 5 mg/kg were determined after IV administration using a 10% DMSO, 10% PEG-200, 10% Solutol:ethanol (1:1) and 70% D5W solution or any other pharmaceutically acceptable parenteral formulation. Blood samples were collected at different intervals. Plasma samples were extracted and analyzed using an LC-MS/MS method. Similar protocols were used for the rat PK study (Sprague Dawley rats; 30 mg/kg), although the formulation for rat PK studies differed (30% Captisol, pH 3.0 solution). Time vs. plasma concentration plots were prepared as shown in FIGS. 4 (BalbC mice) and 5 (SD rats), respectively. Pharmacokinetic parameters were calculated and are provided below in Table 7.

[4] = Maximum tolerated dose study; format: in vivo; settings: 3 days on/3 days off schedule
Procedure: Several maximum tolerated dose studies and toxicology studies were performed and the results indicated PFK-158 is safer than PFK-015. Studies were performed in C57/B16 mice and SD rats.

[5] = Chemical stability of Cremophor based IV formulation; format: physicochemical; settings: about 1 mg/ml in Cremophor:ethyl alcohol 1:1 diluted 1:9 in saline, WFI, lactate Ringer's or D5W
Procedure: PFK-158 and its salts can be prepared in a Cremophor® based formulation. In one embodiment, 10 mg PFK-158 are dissolved in 1 ml of 1:1 v:v Cremophor®:ethyl alcohol solution using vigorous stirring. Once the compound is effectively dissolved, the solution is filtered and then added to saline, water for injection, lactate Ringer's, or D5W in a 1:9 ratio, resulting in a clear solution, free from particles, with a PFK-158 concentration of about 1 mg/ml. The composition is chemically stable for at least 6 hours and can be administered to mammals, including humans.

PFKFB3 = PFKFB3 (Homo sapiens, UniProt Q16875); test: Enzymatic activity of PFKFB3 in cells (F2,6BP levels, Van Schaftingen method); format: cell-based; parameters: endogenous in cells; host or cells: Jurkat cells
Chain of PFKFB3 (Q16875 whole entry): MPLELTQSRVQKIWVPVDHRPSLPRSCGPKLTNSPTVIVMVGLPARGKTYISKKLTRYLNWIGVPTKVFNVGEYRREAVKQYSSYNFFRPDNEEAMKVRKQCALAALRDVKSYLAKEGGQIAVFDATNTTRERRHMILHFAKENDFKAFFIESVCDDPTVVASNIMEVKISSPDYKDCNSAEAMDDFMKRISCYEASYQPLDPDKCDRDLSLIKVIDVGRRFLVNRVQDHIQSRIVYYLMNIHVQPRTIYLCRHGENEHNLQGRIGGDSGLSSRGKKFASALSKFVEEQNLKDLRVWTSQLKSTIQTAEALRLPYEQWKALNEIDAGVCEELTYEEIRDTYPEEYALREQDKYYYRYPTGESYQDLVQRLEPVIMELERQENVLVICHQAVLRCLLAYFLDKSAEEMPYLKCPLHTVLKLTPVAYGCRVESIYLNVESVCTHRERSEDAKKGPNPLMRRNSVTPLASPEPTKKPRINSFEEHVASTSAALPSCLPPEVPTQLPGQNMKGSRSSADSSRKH
Procedure: Inhibition of PFKFB3 can also be measured in cells by measuring fructose-2,6-biphosphate levels according to the Van Schaftingen method (Eur. J. of Biochem, 129: 191 (1982)). This method enables measurement of the inhibition in a cellular environment, a model more relevant than the pure recombinant protein. Briefly, Jurkat cells were plated at 1×10^5 cells/mL and incubated with different concentrations of PFK-158 for 3 hours. Samples were collected and cells were lysed. Extracts were characterized as described in previous reports and normalized to protein concentration.

O=C(/C=C/c1ccc2ccc(C(F)(F)F)cc2n1)c1ccncc1 [PFK-158, (E)-1-(pyridyn-4-yl)-3-(7-(trifluoromethyl)quinolin-2-yl)-prop-2-en-1-one]
MTD ([1]; rat, in vivo, repeat dosing schedule): > 30 mg/kg | Adverse observations in toxicology study ([1]; repeat dosing, PFK-158 5 to 30 mg/kg, PFK-015 12 and 25 mg/kg): no adverse observations | body weight loss (tolerability) (LLC tumor): no noticeable body weight loss | tumor growth inhibition ([2]; lung, pancreatic and colon cancer mouse models): 50% to 70 | body weight loss ([2]; mouse, in vivo): without noticeable body weight loss or death | effect of combination with other chemotherapeutic agents ([2]; tumor models, FIGS. 6-8): additive or synergistic effect | T1/2b [3]: 8.6 h | AUC(0-inf) ([3]; plasma): 3300 ng·h/mL | Cmax ([3]; plasma): 18900 ng/mL | MTD ([4]; C57/B16, mouse, in vivo, read-out: MTD): > 45 mg/kg | MTD ([4]; Table 4, body weight loss superior to 10% or death): Not reached, >45 mg/kg | chemical stability of composition [5]: at least 6 hours | IC50 (PFKFB3; FIG. 3, Jurkat cells, 3 hours, read-out: IC50, PFKFB3 in cells by fructose-2,6-biphosphate levels): 1600 ± 800 nM | IC50 (PFKFB3; Table 1, F2,6BP levels, Jurkat cells, read-out: IC50, Enzymatic activity of PFKFB3 in cells): 1600 ± 800 nM | IC50 (PFKFB3; Table 6, Jurkat cells, read-out: IC50 Cellular PFKFB3 (F2,6BP)): 1620 ± 400 nM | IC50 (PFKFB3; Table 8, read-out: IC50, Enzymatic activity of PFKFB3 in cells): 1600 ± 800 nM
